Results taken from PubChem BioAssay (NCI).
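Cells were grown in 96-well plates and exposed to each compound for 48 hours at five concentrations; endpoints were interpolated linearly between bracketing concentrations, or set to the highest concentration if not reached. At the TGI there is no net growth.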

Tests used:
Test in all cases: DTP human tumour cell line panel, 48 h
786-0 renal = test system: 786-0 renal
A498 renal = test system: A498 renal
A549 NSCLC = test system: A549 NSCLC
ACHN renal = test system: ACHN renal
BT-549 breast = test system: BT-549 breast
CAKI-1 renal = test system: CAKI-1 renal
CCRF-CEM leukemia = test system: CCRF-CEM leukemia
COLO 205 colon = test system: COLO 205 colon
DU-145 prostate = test system: DU-145 prostate
EKVX NSCLC = test system: EKVX NSCLC
HCC-2998 colon = test system: HCC-2998 colon
HCT-116 colon = test system: HCT-116 colon
HCT-15 colon = test system: HCT-15 colon
HL-60(TB) leukemia = test system: HL-60(TB) leukemia
HOP-62 NSCLC = test system: HOP-62 NSCLC
HOP-92 NSCLC = test system: HOP-92 NSCLC
HS 578T breast = test system: HS 578T breast
HT29 colon = test system: HT29 colon
IGROV1 ovarian = test system: IGROV1 ovarian
K-562 leukemia = test system: K-562 leukemia
KM12 colon = test system: KM12 colon
LOX IMVI melanoma = test system: LOX IMVI melanoma
M14 melanoma = test system: M14 melanoma
MALME-3M melanoma = test system: MALME-3M melanoma
MCF7 breast = test system: MCF7 breast
MDA-MB-231 breast = test system: MDA-MB-231 breast
MDA-MB-435 = test system: MDA-MB-435
MDA-N = test system: MDA-N
MOLT-4 leukemia = test system: MOLT-4 leukemia
NCI-H226 lung = test system: NCI-H226 lung
NCI-H23 lung = test system: NCI-H23 lung
NCI-H460 lung = test system: NCI-H460 lung
NCI-H522 lung = test system: NCI-H522 lung
NCI/ADR-RES ovarian = test system: NCI/ADR-RES ovarian
OVCAR-3 ovarian = test system: OVCAR-3 ovarian
OVCAR-4 ovarian = test system: OVCAR-4 ovarian
OVCAR-5 ovarian = test system: OVCAR-5 ovarian
OVCAR-8 ovarian = test system: OVCAR-8 ovarian
PC-3 prostate = test system: PC-3 prostate
RPMI-8226 leukemia = test system: RPMI-8226 leukemia
RXF 393 renal = test system: RXF 393 renal
SF-268 CNS = test system: SF-268 CNS
SF-295 CNS = test system: SF-295 CNS
SF-539 CNS = test system: SF-539 CNS
SK-MEL-2 melanoma = test system: SK-MEL-2 melanoma
SK-MEL-28 melanoma = test system: SK-MEL-28 melanoma
SK-MEL-5 melanoma = test system: SK-MEL-5 melanoma
SK-OV-3 ovarian = test system: SK-OV-3 ovarian
SN12C renal = test system: SN12C renal
SNB-19 CNS = test system: SNB-19 CNS
SNB-75 CNS = test system: SNB-75 CNS
SR leukemia = test system: SR leukemia
SW-620 colon = test system: SW-620 colon
T-47D breast = test system: T-47D breast
TK-10 renal = test system: TK-10 renal
U251 CNS = test system: U251 CNS
UACC-257 melanoma = test system: UACC-257 melanoma
UACC-62 melanoma = test system: UACC-62 melanoma
UO-31 renal = test system: UO-31 renal

CCCCCNC(=O)c1cc2cc(CCl)ccc2oc1=O
TGI (786-0 renal): 2.82 µM
TGI (A498 renal): 3.98 µM
TGI (A549 NSCLC): 14.1 µM
TGI (ACHN renal): 4.52 µM
TGI (BT-549 breast): > 46.3 µM
TGI (CAKI-1 renal): 2.57 µM
TGI (CCRF-CEM leukemia): > 100 µM
TGI (COLO 205 colon): 2.79 µM
TGI (DU-145 prostate): 5.95 µM
TGI (EKVX NSCLC): 9.94 µM
TGI (HCC-2998 colon): 18.9 µM
TGI (HCT-116 colon): > 38.5 µM
TGI (HCT-15 colon): 6.22 µM
TGI (HL-60(TB) leukemia): 10.5 µM
TGI (HOP-62 NSCLC): 14 µM
TGI (HOP-92 NSCLC): 3.71 µM
TGI (HS 578T breast): > 54.7 µM
TGI (HT29 colon): 9.58 µM
TGI (IGROV1 ovarian): 18.6 µM
TGI (K-562 leukemia): > 100 µM
TGI (KM12 colon): > 44.5 µM
TGI (LOX IMVI melanoma): > 72.8 µM
TGI (M14 melanoma): > 51.4 µM
TGI (MALME-3M melanoma): 7.5 µM
TGI (MCF7 breast): > 87.4 µM
TGI (MDA-MB-231 breast): 3.72 µM
TGI (MDA-MB-435): > 60.8 µM
TGI (MDA-N): > 94.2 µM
TGI (MOLT-4 leukemia): > 100 µM
TGI (NCI-H226 lung): 30.1 µM
TGI (NCI-H23 lung): 11.5 µM
TGI (NCI-H460 lung): 3.3 µM
TGI (NCI-H522 lung): 17.1 µM
TGI (NCI/ADR-RES ovarian): > 66.8 µM
TGI (OVCAR-3 ovarian): 26.6 µM
TGI (OVCAR-4 ovarian): 26.6 µM
TGI (OVCAR-5 ovarian): 7.99 µM
TGI (OVCAR-8 ovarian): > 100 µM
TGI (PC-3 prostate): 2.81 µM
TGI (RPMI-8226 leukemia): > 100 µM
TGI (RXF 393 renal): 1.78 µM
TGI (SF-268 CNS): 12.4 µM
TGI (SF-295 CNS): 24.7 µM
TGI (SF-539 CNS): 16.8 µM
TGI (SK-MEL-2 melanoma): 19.8 µM
TGI (SK-MEL-28 melanoma): > 100 µM
TGI (SK-MEL-5 melanoma): > 51.2 µM
TGI (SK-OV-3 ovarian): 10.3 µM
TGI (SN12C renal): 3.67 µM
TGI (SNB-19 CNS): > 69 µM
TGI (SNB-75 CNS): 13.1 µM
TGI (SR leukemia): > 100 µM
TGI (SW-620 colon): > 100 µM
TGI (T-47D breast): 2.98 µM
TGI (TK-10 renal): 2.85 µM
TGI (U251 CNS): 36.6 µM
TGI (UACC-257 melanoma): 6.56 µM
TGI (UACC-62 melanoma): 7.15 µM
TGI (UO-31 renal): 3.07 µM

OCCN(CCO)CCn1cnc2c(NCc3ccccc3)ncnc21
TGI (786-0 renal): > 100 µM
TGI (A498 renal): > 100 µM
TGI (A549 NSCLC): > 100 µM
TGI (ACHN renal): > 100 µM
TGI (BT-549 breast): > 100 µM
TGI (CAKI-1 renal): > 100 µM
TGI (CCRF-CEM leukemia): > 100 µM
TGI (COLO 205 colon): > 100 µM
TGI (DU-145 prostate): > 100 µM
TGI (EKVX NSCLC): > 100 µM
TGI (HCC-2998 colon): > 100 µM
TGI (HCT-116 colon): > 100 µM
TGI (HCT-15 colon): > 100 µM
TGI (HL-60(TB) leukemia): > 100 µM
TGI (HOP-62 NSCLC): > 100 µM
TGI (HOP-92 NSCLC): > 100 µM
TGI (HS 578T breast): > 100 µM
TGI (HT29 colon): > 100 µM
TGI (IGROV1 ovarian): > 100 µM
TGI (K-562 leukemia): > 100 µM
TGI (KM12 colon): > 100 µM
TGI (LOX IMVI melanoma): > 100 µM
TGI (M14 melanoma): > 100 µM
TGI (MALME-3M melanoma): > 100 µM
TGI (MCF7 breast): > 100 µM
TGI (MDA-MB-231 breast): > 100 µM
TGI (MDA-MB-435): > 100 µM
TGI (MDA-N): > 100 µM
TGI (MOLT-4 leukemia): > 100 µM
TGI (NCI-H226 lung): > 100 µM
TGI (NCI-H23 lung): > 100 µM
TGI (NCI-H460 lung): > 100 µM
TGI (NCI-H522 lung): > 100 µM
TGI (NCI/ADR-RES ovarian): > 100 µM
TGI (OVCAR-3 ovarian): > 100 µM
TGI (OVCAR-4 ovarian): > 100 µM
TGI (OVCAR-5 ovarian): > 100 µM
TGI (OVCAR-8 ovarian): > 100 µM
TGI (PC-3 prostate): > 100 µM
TGI (RPMI-8226 leukemia): > 100 µM
TGI (RXF 393 renal): > 100 µM
TGI (SF-268 CNS): > 100 µM
TGI (SF-295 CNS): > 100 µM
TGI (SF-539 CNS): > 100 µM
TGI (SK-MEL-2 melanoma): > 100 µM
TGI (SK-MEL-28 melanoma): > 100 µM
TGI (SK-MEL-5 melanoma): > 100 µM
TGI (SK-OV-3 ovarian): > 100 µM
TGI (SN12C renal): > 100 µM
TGI (SNB-19 CNS): > 100 µM
TGI (SNB-75 CNS): > 100 µM
TGI (SR leukemia): > 100 µM
TGI (SW-620 colon): > 100 µM
TGI (T-47D breast): > 100 µM
TGI (TK-10 renal): > 100 µM
TGI (U251 CNS): > 100 µM
TGI (UACC-257 melanoma): > 100 µM
TGI (UACC-62 melanoma): > 100 µM
TGI (UO-31 renal): > 100 µM
